Experimental data as given in patent US12466817B2, “Pyridine derivative and application thereof” (Nicoya Therapeutics (Shanghai) Co., Ltd, priority 2020, dated 2025).

Assays:
[1] = biological target: T1, CCR5 (Homo sapiens, UniProt P51681); experiment: CCR5 FLIPR Calcium assay (intracellular calcium signaling); type: cell-based; conditions: HEK293 host cells, clone C13; agonist RANTES; Fluo-4 calcium signal
T1 construct: expressed in transfected cells; host or cells: HEK293, clone C13, passage P4
Method: (§1) The inhibitory effects of the compounds on CCR2 and CCR5 receptors were evaluated by detecting intracellular calcium signaling changes by FLIPR Calcium assay, using the IC50 values of the compounds as indicators.
(§2) 1. Cell lines: The cells were seeded and incubated overnight at 37° C. in a 5% CO2 incubator CCR2/CCR5 density: 1 M (20 k/well)
(§3) 2. Reagent: Fluo-4 Direct, (Invitrogen, Cat #F10471)
(§4) The compound was prepared by dissolving in DMSO to a 10 mM solution, and the compound solution was placed in a nitrogen chamber.
(§5) Preparation of probenecid in FLIPR assay buffer: 1 mL of FLIPR assay buffer was added to 77 mg of probenecid to make a 250 mM solution. The solution was prepared every day to keep fresh.
(§6) 2× (8 μM) Fluo-4 Direct™ loading buffer (10 mL of each)
(§7) 0.2 mL of probenecid was added to each 10 mL of Fluo-Direct. The final measured concentration was 2.5 mM MCP-1 was diluted in FLIPR assay buffer 1:2 for 10 spots, starting at 0.5 μM (eventually to […]). RANTES was diluted in FLIPR assay buffer 1:3 for 10 spots, starting at 0.5 μM (eventually to […]). 20 μL of serially diluted compound buffer was added to each well of the DRC plate.
(§8) The standard compound was diluted in DMSO 1:3 for 11 points, starting at 1 mM.
(§9) The test compound was diluted in DMSO 1:3 for 11 spots, starting at 2 mM. 250 nL of compound solution was transferred to cell plates using Echo (Greiner #781946) c) The cell plate was taken from the incubator and 20 μL of 2× Fluo-4 Direct no wash loading buffer was gently dispensed into a 384-well cell culture plate using a pipette. The volume in the final cell plate was 40 μL […]
(§10) d) Incubation was conducted at 37° C. 5% CO2 for 50 minutes, at room temperature for 10 minutes e) The cell plate was taken from the incubator and placed in the FLIPR. The composite plate and pipette tip box were placed in the FLIPR
(§11) 5) The “Max-Min” was calculated from Read 90 to the maximum allowed. EC80 values for each cell line were calculated using FLIPR
(§12) 6) Agonist reference compound at 5 times EC80 concentration was prepared 2) 10 μL of agonist reference compound at 5 times EC80 concentration was transferred from the composite plate to the cell plate.
(§13) 3) Fluorescence signals were read.
(§14) 4) The “Max-Min” was calculated from Read 90 to the maximum allowed h) Data was analyzed by using Prism, the IC50 values of the compounds were calculated.

[2] = biological target: T2, CCR2 (Homo sapiens, UniProt P41597); experiment: CCR2 FLIPR Calcium assay (intracellular calcium signaling); type: cell-based; conditions: HEK293 host cells, clone C7; agonist MCP-1; Fluo-4 calcium signal
T2 construct: expressed in transfected cells; host or cells: HEK293, clone C7, passage P6
Method: as §1, §2, §3, §4, §5, §6, §7, §8, §9, §10, §11, §12, §13, §14

[3] = Comparative pharmacokinetic test in mice; type: in vivo, C57BL/6 male mice; conditions: mice
Method: C57BL/6 male mice were used as test animals in the present study, and the plasma drug concentrations of the test compound WX009 and the reference compound in mice by intravenous administration or oral administration were quantified by LC/MS/MS method at different time points respectively to evaluate the pharmacokinetic characteristics of the two test drugs in mice.
A clarified solution of the test compound was injected via tail vein into C57BL/6 mice (overnight fasting, 7-10 weeks old), and the test compound was given by gavage into C57BL/6 mice (overnight fasting, 7-10 weeks old). Approximately 30 μL of blood was collected from the jugular or tail vein at 0.0833, 0.25, 0.5, 1, 2, 4, 6, 8, and 24 hours after administration, and placed in anticoagulation tubes added with EDTA-K2, then centrifuged at 4° C. for 15 minutes at 3000 g to give the plasma. Plasma drug concentration was determined by LC-MS/MS, and relevant pharmacokinetic parameters were calculated using WinNonlin™ Version 6.3 (Pharsight, Mountain View, CA) pharmacokinetic software with a non-compartmental model linear logarithmic trapezoidal method.

[4] = biological target: T3, CYP3A4 (Homo sapiens, UniProt P08684); experiment: Inhibition of human liver microsomal CYP3A4 activity; type: in vitro ADME; conditions: human liver microsomes, conclusion
T3 construct: from tissue; host or cells: human liver microsomes
Method: A total of five specific probe substrates for the five isozymes of CYP, phenacetin (CYP1A2), diclofenac (CYP2C9), (S′)-mephenytoin (CYP2C19), dextromethorphan ([…]), and midazolam (CYP3A4), were incubated respectively with human liver microsomes and the test compounds, and the reaction was initiated by the addition of reduced nicotinamide adenine dinucleotide phosphate (NADPH), and the samples were treated and the concentrations of the five metabolites produced by the specific substrates, acetaminophen, 4′-hydroxydiclofenac, 4′-hydroxymephenytoin, dextrorphan and 1′-hydroxymidazolam were measured by liquid chromatography tandem mass spectrometry (LC-MS/MS) after the end of the reaction, and the corresponding half maximal inhibitory concentrations (IC50) were calculated.

T1 sequence (P51681 whole entry, species assumed): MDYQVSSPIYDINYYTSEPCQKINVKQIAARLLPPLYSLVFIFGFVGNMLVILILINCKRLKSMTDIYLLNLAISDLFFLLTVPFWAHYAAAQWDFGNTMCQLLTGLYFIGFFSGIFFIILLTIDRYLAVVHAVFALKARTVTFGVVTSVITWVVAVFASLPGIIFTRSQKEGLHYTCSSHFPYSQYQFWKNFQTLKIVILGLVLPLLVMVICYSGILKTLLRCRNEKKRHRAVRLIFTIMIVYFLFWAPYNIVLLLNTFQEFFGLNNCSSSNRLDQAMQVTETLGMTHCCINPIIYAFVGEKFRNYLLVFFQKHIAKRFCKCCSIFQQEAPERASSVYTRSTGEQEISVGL
T2 sequence (P41597 whole entry, species assumed): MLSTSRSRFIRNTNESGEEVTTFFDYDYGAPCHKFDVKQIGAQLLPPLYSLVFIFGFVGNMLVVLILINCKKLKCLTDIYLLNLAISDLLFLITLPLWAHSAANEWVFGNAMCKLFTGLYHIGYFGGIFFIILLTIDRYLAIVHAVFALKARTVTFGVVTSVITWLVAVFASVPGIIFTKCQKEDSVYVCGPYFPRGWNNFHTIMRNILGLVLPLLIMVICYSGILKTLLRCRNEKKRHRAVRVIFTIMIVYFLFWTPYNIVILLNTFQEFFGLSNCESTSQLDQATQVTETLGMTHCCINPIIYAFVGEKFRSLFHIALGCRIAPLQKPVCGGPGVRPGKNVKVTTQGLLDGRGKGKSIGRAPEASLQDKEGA
T3 sequence (P08684 whole entry): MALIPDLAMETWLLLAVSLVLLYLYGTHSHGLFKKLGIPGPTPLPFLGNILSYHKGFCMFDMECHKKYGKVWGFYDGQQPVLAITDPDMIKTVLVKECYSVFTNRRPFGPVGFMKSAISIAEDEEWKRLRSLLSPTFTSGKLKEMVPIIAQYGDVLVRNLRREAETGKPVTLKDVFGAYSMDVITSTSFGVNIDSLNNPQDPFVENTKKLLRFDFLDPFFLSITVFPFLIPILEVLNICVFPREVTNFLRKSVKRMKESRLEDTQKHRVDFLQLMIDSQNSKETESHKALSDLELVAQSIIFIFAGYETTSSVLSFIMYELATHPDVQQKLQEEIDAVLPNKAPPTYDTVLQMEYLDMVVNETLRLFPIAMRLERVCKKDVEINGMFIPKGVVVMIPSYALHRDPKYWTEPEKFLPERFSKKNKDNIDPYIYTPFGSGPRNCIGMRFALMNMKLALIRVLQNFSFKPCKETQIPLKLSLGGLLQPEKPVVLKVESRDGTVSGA

Row | Compound | IC50 [1] [nM] | IC50 [2] [nM] | other results
1 | CCCCOCCOc1ccc(-c2ccc3c(c2)C=C(C(=O)Nc2ccc([S+]([O-])Cc4cnccc4CC)cc2)CCCN3CC2COCCO2)cc1 (single isomer, unassigned) [WX003] | 11.7 | 16.5 | 
2 | CCCCOCCOc1ccc(-c2ccc3c(c2)C=C(C(=O)Nc2ccc([S+]([O-])Cc4cnccc4CC)cc2)CCCN3CC2CCCO2)cc1 (single isomer, unassigned) [WX004] | 6.47 | 19.4 | 
3 | CCCCOCCOc1ccc(-c2ccc3c(c2)C=C(C(=O)Nc2ccc([S+]([O-])Cc4cnccc4CC)cc2)CCCN3CC2CCCO2)cc1 (single isomer, unassigned) [WX005] | 8.9 | 20.9 | 
4 | CCCCOCCOc1ccc(-c2ccc3c(c2)C=C(C(=O)Nc2ccc([S+]([O-])Cc4c(CC)ccnc4C)cc2)CCCN3CC2CCOCC2)cc1 (single isomer, unassigned) [WX006] |  | 15.9 | 
5 | CCCCOCCOc1ccc(-c2ccc3c(c2)C=C(C(=O)Nc2ccc([S+]([O-])Cc4c(CC)ccnc4C)cc2)CCCN3CC2CCCO2)cc1 (single isomer, unassigned) [WX008] |  | 15.2 | 
6 | CCCCOCCOc1ccc(-c2ccc3c(c2)/C=C(/C(=O)Nc2ccc([S@+]([O-])Cc4c(CC)ccnc4C)cc2)CCCN3C[C@H]2CCCO2)cc1 (single isomer, unassigned) [WX010] |  | 13.7 | 
7 | CCCCOCCOc1ccc(-c2ccc3c(c2)/C=C(/C(=O)Nc2ccc([S@+]([O-])Cc4c(CC)ccnc4C)cc2)CCCN3C[C@H]2CCCO2)cc1 (single isomer, unassigned) [WX011] | 3.79 | 1.15 | 
8 | CCCCOCCOc1ccc(-c2ccc3c(c2)C=C(C(=O)Nc2ccc([S+]([O-])Cc4cnc(C)cc4CC)cc2)CCCN3CC2CCOCC2)cc1 (single isomer, unassigned) [WX013] |  | 19.9 | 
9 | CCCCOCCOc1ccc(-c2ccc3c(c2)C=C(C(=O)Nc2ccc([S+]([O-])Cc4cnc(C)cc4CC)cc2)CCCN3CC2CCCO2)cc1 (single isomer, unassigned) [WX014] | 12.1 | 1.39 | 
10 | CCCCOCCOc1ccc(-c2ccc3c(c2)C=C(C(=O)Nc2ccc([S+]([O-])Cc4cnc(C)cc4CC)cc2)CCCN3CC2CCCO2)cc1 (single isomer, unassigned) [WX015] |  | 21.4 | 
11 | CCCCOCCOc1ccc(-c2ccc3c(c2)/C=C(/C(=O)Nc2ccc([S@+]([O-])Cc4cnc(C)cc4CC)cc2)CCCN3C[C@H]2CCCO2)cc1 (single isomer, unassigned) [WX016] | 16.4 | 1.75 | 
12 | CCCCOCCOc1ccc(-c2ccc3c(c2)/C=C(/C(=O)Nc2ccc([S@+]([O-])Cc4cnc(C)cc4CC)cc2)CCCN3C[C@H]2CCCO2)cc1 (single isomer, unassigned) [WX017] |  | 34 | 
13 | CCCCOCCOc1ccc(-c2ccc3c(c2)C=C(C(=O)Nc2ccc([S+]([O-])Cc4c(C)ccnc4C)cc2)CCCN3CC2CCOCC2)cc1 (single isomer, unassigned) [WX019] | 3.9 |  | 
14 | CCCCOCCOc1ccc(-c2ccc3c(c2)/C=C(/C(=O)Nc2ccc([S+]([O-])Cc4c(C)ccnc4C)cc2)CCCN3CC2CCCO2)cc1 (single isomer, unassigned) [WX020] | 5.61 |  | 
15 | CCCCOCCOc1ccc(-c2ccc3c(c2)/C=C(/C(=O)Nc2ccc([S+]([O-])Cc4cnc(C)cc4C)cc2)CCCN3CC2CCCO2)cc1 (single isomer, unassigned) [WX024] | 11.3 |  | 
16 | CCCCOCCOc1ccc(-c2ccc3c(c2)/C=C(/C(=O)Nc2ccc([S@@+]([O-])Cc4cncn4CCC)cc2)CCCN3CC(C)C)cc1 [(Cenicriviroc), Cenicriviroc, reference compound] |  |  | half-life ([3]; male, C57BL/6, mouse, plasma, intravenous injection 2 mg/kg): 3.55 h; clearance ([3]; male, C57BL/6, mouse, plasma, intravenous injection 2 mg/kg, read-out: Plasma clearance rate): 2.28 mL/min/kg; bioavailability ([3]; male, C57BL/6, mouse, plasma, oral 10 mg/kg): 6.02%; Area under the time-concentration curve (0-inf) ([3]; oral 10 mg/kg): 6.401 µM·h; Peak concentration ([3]; oral 10 mg/kg): 1533 nM; Peak time ([3]; oral 10 mg/kg): 1.0 h
17 | CCCCOCCOc1ccc(-c2ccc3c(c2)/C=C(/C(=O)Nc2ccc([S@@+]([O-])Cc4cncn4CCC)cc2)CCCN3CC2CC2)cc1 [Reference A, reference compound] |  |  | Inhibition of CYP3A4 (in words) [4]: strong inhibition
18 | CCCCOCCOc1ccc(-c2ccc3c(c2)/C=C(/C(=O)Nc2ccc([S+]([O-])Cc4cnccc4CC)cc2)CCCN3CC2CCOCC2)cc1 (stereo not shown) [WX001] | 4.36 | 17.6 | 
19 | Cenicriviroc [(Cenicriviroc), reference compound] |  |  | Inhibition of CYP3A4 (in words) ([4]; listed as reference compound): strong inhibitory effect; Inhibition of CYP3A4 (in words) ([4]; listed as reference compounds): strong inhibition

Now from value to compound, other results behind:

Row | IC50 [1] [nM] | IC50 [2] [nM] | Compound | other results
20 | 7.47 | 19.5 | CCCCOCCOc1ccc(-c2ccc3c(c2)C=C(C(=O)Nc2ccc([S+]([O-])Cc4cnccc4CC)cc2)CCCN3CC2COCCO2)cc1 (single isomer, unassigned) [WX002] | 
21 | 15.2 |  | CCCCOCCOc1ccc(-c2ccc3c(c2)C=C(C(=O)Nc2ccc([S+]([O-])Cc4c(C)ccnc4C)cc2)CCCN3CC2CCOCC2)cc1 (single isomer, unassigned) [WX018] | 
22 | 5.89 |  | CCCCOCCOc1ccc(-c2ccc3c(c2)/C=C(/C(=O)Nc2ccc([S+]([O-])Cc4c(C)ccnc4C)cc2)CCCN3CC2CCCO2)cc1 (single isomer, unassigned) [WX021] | 
23 | 9.71 |  | CCCCOCCOc1ccc(-c2ccc3c(c2)/C=C(/C(=O)Nc2ccc([S+]([O-])Cc4cnc(C)cc4C)cc2)CCCN3CC2CCCO2)cc1 (single isomer, unassigned) [WX023] | 
24 | 13.6 |  | CCCCOCCOc1ccc(-c2ccc3c(c2)/C=C(/C(=O)Nc2ccc([S+]([O-])Cc4cnc(C)cc4C)cc2)CCCN3CC2CCOCC2)cc1 (stereo not shown) [WX022] | 
25 | 4.26 | 2.26 | CCCCOCCOc1ccc(-c2ccc3c(c2)/C=C(/C(=O)Nc2ccc([S@+]([O-])Cc4c(CC)ccnc4CC)cc2)CCCN3CC2CCOCC2)cc1 [WX025] | 
